Measurements: patent US20210038668A1, “TRADITIONAL CHINESE MEDICINE COMPOSITION FOR PREVENTING AND/OR TREATING ISCHEMIC REPERFUSION INJURY” (TASLY PHARMACEUTICAL GROUP CO., LTD., priority 2018, published 2021)

What was measured:
[1] = test system: mice with carotid artery thrombus; assay: 18-Score Modified Neurological Severity Score, mice; assay type: in vivo, C57BL/6 mice
Protocol: Neurological scoring was conducted to each group of […] after reperfused for 3 hours and 24 hours based upon scoring standards (18 scores), as shown in table 2:
Another scoring method is introduced hereafter. Modified neurological severity scores, mNSS, the score is within the range of 0-18. The scoring method is referring to 1.4 of Example 1.
18-Score Modified Neurological Severity Score (normal mice=0; the higher the score is, the more severe the nerve injury is), and a 15-score standard (normal mice=15, dead mice=0) are applied.

[2] = test system: VE-cadherin; assay: Western blotting of VE-cadherin, endothelial cells after hypoxia/reoxygenation; assay type: cell-based; details: rat brain endothelial cells, hypoxia 4.5 h/reoxygenation 3 h; tPA 20 mcg/ml alone (model group); T541 400 mcg/ml + tPA 20 mcg/ml
From the text: (§1) Establishment of rat brain endothelial cell H/R model: rat brain endothelial cells were purchased from ATCC, and then subcultured to 5-6 generations in normal conditions for further experiment. […]

[3] = test system: Claudin-5; assay: Western blotting of Claudin-5, endothelial cells after hypoxia/reoxygenation; assay type: cell-based; details: rat brain endothelial cells, hypoxia 4.5 h/reoxygenation 3 h; tPA 20 mcg/ml alone (model group); T541 400 mcg/ml + tPA 20 mcg/ml
From the text: as §1

[4] = test system: Collagen IV; assay: Western blotting of Collagen IV, basement membrane; assay type: in vivo, C57BL/6 mice; details: brain tissue 24 hours after administration, sham = 1.00; tPA 10 mg/kg alone; T541 20 mg/kg + tPA 10 mg/kg
Protocol: After reperfused for 24 hours, mice were perfused by normal saline; Western blotting analysis was conducted to the penumbra field of infarcted right cerebral cortex. After perfused, mice brain tissue was taken out; cerebellum and prefrontal lobe were cut off; the brain tissue of right brain close to 1 cm of the central joint of left and right hemispheres along the sagittal view; infarcted penumbra field of the rest tissues was cut off along an 45° angle; the cerebral cortex of the penumbra field was peeled off and preserved at low temperature. Right cerebral cortex was taken and added 1×RIPA lysate and a Cocktail protease inhibitor (1:100, Cell Signaling Technology, US) for full pyrolysis and ultrasonic treatment, and then 17000 g were centrifuged for 30 minutes. Supernatant was taken and added 5×loading buffer by volume, boiled for 20 minutes in boiling water, and then preserved at −80° C. Excessive supernatant was taken out and quantified by a BCA protein quantification liquor (ThermoScientific, US) to measure absorbance value at 560 nm of ELIASA and to calculate the protein concentration according to a standard curve. […] The density of electrophoretic strips was analyzed by an image analysis software Quantityone. […]

[5] = test system: Bcl-2; assay: Western blotting of Bcl-2, endothelial cells after hypoxia/reoxygenation; assay type: cell-based; details: rat brain endothelial cells, hypoxia 4.5 h/reoxygenation 3 h; tPA 20 mcg/ml alone (model group); T541 400 mcg/ml + tPA 20 mcg/ml
From the text: as §1

[6] = test system: cerebral cortex vessels and neurons in penumbra; assay: Transmission electron microscopy of cerebral cortex; assay type: in vivo, C57BL/6 mice; details: 24 h after administration
Protocol: Transmission electron microscope (IEM): after reperfused for 24 hours, anesthetized mice were perfused 3% glutaraldehyde for 40 minutes via ventriculus sinister at a rate of 3 ml/min; the brain was taken, and the mice right cortex was cut into small pieces (1 mm×1 mm×1 mm); small pieces were immobilized in 3% glutaraldehyde for 30 minutes at room temperature or stored over night at 4° C. The brain pieces were washed on a table containing sucrose for 3 times for 15 minutes, immobilized by osmic acid for 2 hours at room temperature, washed by 0.2; PBS for 3 times for 15 minutes, dehydrated for 15 minutes respectively by 30%, 50%, 70% and 90% acetone, and dehydrated for 15 minutes for 15 minutes by 100% acetone, then preimpregnated into a pre-embedding agent mixed by 100% acetone and embedding agent according to a ratio of 1:1; and kept over the night at 37° C.; then brain pieces were impregnated by a pure embedding agent for 24 hours at 37° C., and cured for 48 hours, then naturally cooled; afterwards, brain pieces were trimmed and cut into slices with the thickness of 60 nm. The slices were stained by uranyl acetate and lead citrate, and observed and shoot by a IEM (JEM 1230, JEOL, Tokyo, Japan).

[7] = tPA alone, T541 combined with tPA

## tPA: tissue-type plasminogen activator (tPA) for thrombolysis
[1]; 24 hours after administration, normal = 0, tPA 10 mg/kg alone, T541 20 mg/kg, T141 12 mg/kg, T582 15 mg/kg each + tPA 10 mg/kg
  18-Score Modified Neurological Severity Score: 7.45 ± 0.73
[1]; tPA alone, low/medium/high-dose T541 + tPA
  neurological scoring 24 hours after administration (in words): may not improve the neurological scoring
[2]
  VE-cadherin/β-actin: 0.58 ± 0.07
[3]
  Claudin-5/β-actin: 0.40 ± 0.06
[4]
  Collagen IV content: 0.68 ± 0.04
[5]
  Bcl-2: 0.69 ± 0.12
[6]; tPA 10 mg/kg alone, T541 20 mg/kg + tPA
  TEM: vascular endothelium and perivascular edema (in words): vascular endothelium is rough, and has obvious edema gap with surrounding tissues
[6]; [7]
  TEM: endothelial cell adhesion structure of cerebral cortex vessels (in words): the close adhesion structure of cerebral cortex vessels in penumbra field is opened
  TEM: neurons of cerebral cortex in penumbra (in words): bodies of neuron shrink and deform
